pIC50: −log10 of the molar value. Read-outs that look alike come from different tables or passages of the source. Some results are limits rather than exact numbers.

For one series, the system named is GL261. The experiment in a line: Potency (cell viability v. concentration) against GBM cell line GL261. The class given is cell-based. The protocol:
(§1) The potencies of several therapies again GBM cells lines were measured.
(§2) FIG. 3 depicts a plot of cell viability v. concentration of each of the therapies listed in the foregoing table.

Another series concerns CT-2A. As to the kind of experiment: Potency (cell viability v. concentration) against GBM cell line CT-2A. In kind it is cell-based. The protocol: as §1, §2
In a further series the test system is GBM spheroids. As to the kind of experiment: Elimination of GBM spheroids in vitro. In kind it is cell-based. Conditions: compared with other tested chemotherapies. The text has this:
The other tested chemotherapies, however, may be used in the methods and compositions described herein.

Another series concerns GBM cells. As to the kind of experiment: Calreticulin surface expression and HMGB1 excretion of GBM cells.
The nature of series [1]: In vitro drug release from hydrogels. The class given is physicochemical. On the procedure: Doxorubin release profiles of the foregoing compositions were tested.
Also compared was the cumulative release percentage of doxil and doxorubicin.
The in vitro release of acriflavine also was tested. An injectable hydrogel formulation (75% oxidized dextran, 12.5% w/v; PAMAM dendrimer, 15% w/v, pH 9.2) was prepared with four different loading concentrations (0.625 mg, 1.25 mg, 2.5 mg, and 5 mg, each of which had been previously injected locally in the brain).

Setting [2] is: Mus musculus, GL261, read-out: IC50 in GL261.

As to `O=NN(CCCl)C(=O)NCCCl` [Carmustine (BCNU), Carmustine], the pIC50 was 3.84 in the series with GL261 (setting [2]) and 3.81 with CT-2A (read-out: IC50 in CT-2A).
Turning to `COc1cccc2c1C(=O)c1c(O)c3c(c(O)c1C2=O)C[C@@](O)(C(=O)CO)C[C@@H]3O[C@H]1C[C@H](N)[C@H](O)[C@H](C)O1` [Doxorubicin], in the series on GBM spheroids, the “elimination of GBM spheroids” value is on record as “more potently eliminated GBM spheroids in vitro than other tested chemotherapies”. Moreover, the “surface expression of calreticulin” value in the series on GBM cells (FIG. 42, FIG. 43) is “increase the surface expression of calreticulin”. In addition, the HMGB1 excretion result in the series with GBM cells (at relevant concentrations) was “did not impact HMGB1 excretion at relevant concentrations”. Further, the pIC50 in the series with GL261 (Mus musculus, GL261, comparative testing doxil v. doxorubicin, FIG. 20A/20B, read-out: potency from cell viabilities, GL261 (quantity not named)) is 6.08; in the series on GL261 (setting [2]), 6.10; in the series with CT-2A (comparative testing doxil v. doxorubicin, FIG. 20A/20B, read-out: potency from cell viabilities, CT-2A (quantity not named)), 6.77; in the series with CT-2A (read-out: IC50 in CT-2A), 7.00. Besides, in series [1] (over 200 hours, FIG. 11), the “cumulative percentage released, doxorubicin compared with doxil” value is on record as “greater cumulative percentage”.
For the molecule `CCc1c2c(nc3ccc(OC(=O)N4CCC(N5CCCCC5)CC4)cc13)-c1cc3c(c(=O)n1C2)COC(=O)[C@]3(O)CC` [Irinotecan], the results for the pIC50 in the series on GL261 (setting [2]) and with CT-2A (read-out: IC50 in CT-2A) were 3.97 and 3.82, respectively.
In the case of `Cn1nnc2c(C(N)=O)ncn2c1=O` [Temozolomide], the pIC50 in the series with GL261 (setting [2]) and with CT-2A (read-out: IC50 in CT-2A) was less than 3.12 each time.
Acriflavine: the pIC50 is 5.57 with GL261 (read-out: IC50 in GL261) and 5.14 in the series with CT-2A (read-out: IC50 in CT-2A). Further, in series [1] (released from hydrogel), the activity upon release entry is recorded as “retained its activity upon release”.

Source of the values: patent US20250281402A1, “COMPOSITIONS FOR LOCAL THERAPY DELIVERY TO BRAIN TUMORS AND METHODS” (Massachusetts Institute of Technology, priority 2022, published 2025).
